Legend:
Male Han Wistar rats = assay: Clinical signs / tolerability after single IV or PO administration
Protocol: (§1) Fifteen male Han Wistar rats were obtained from Charles River Laboratories, Margate, UK. Animals were all in the target weight range of 163 to 215 g at dosing. Diet was removed at the end of the working day prior to each dose occasion, and returned 4 h after dosing.
(§2) Each animal received a single administration (Table 2). PO doses were administered by gavage at a nominal dose volume of 5 ml/kg. IV doses were administered via a lateral tail vein, at a nominal dose volume of 2 ml/kg, as a bolus injection. Body weights were recorded the day after arrival and before dose administration and used for calculation of doses. Samples of blood (nominally 150 μl) were collected from the jugular vein of each animal. For PO dosing this was done at 0.25, 0.5, 1, 2, 4, 6, 8 and 24 h post dose. For IV dosing this was at 0.016, 0.083, 0.5, 1, 2, 4, 8 and 24 h post dose. The actual blood collection time was used in the subsequent PK data analysis. Blood was collected into tubes containing the K2EDTA anticoagulant and stored at room temperature. Blood was centrifuged (1500g, 10 min, 4 °C) to produce plasma for analysis and residual blood cells were discarded.
The following results were calculated for each group.

in vivo = conditions: rat, iv
Protocol: as §1, §2
Transfer of a 10 μl aliquot into a clean 2 ml […] collection plate • 2. Addition of 25 μl I-B (500 ng/ml). Addition of 25 μl methanol to all blanks • 3. Vortex mix plate (ca. 1 min) • 4. Addition of 80 μl methanol to all wells • 5. Vortex mix plate (ca. 2 min) • 6. Centrifuge 2000g plate for 10 min at room temperature • 7. Transfer 40 μl of supernatant to a clean 1.2 ml 96-well collection plate • 8. Dilute with 160 μl 10 mM of ammonium acetate:ammonium hydroxide (100:0.5 v/v) solution • 9. Vortex mix plate (ca. 2 min) • 10. Complete analysis by LC/MS-MS.

rats = conditions: rat, in vivo, cited from earlier work
humans = test system: humans; set-up: method as in Knip et al., 2000; conditions: human adults, orally; ref Knip et al., 2000; cited from earlier work

Question: With `[2H]c1cc([2H])c(C(N)=O)cn1` [d2-NA, 4,6-d2-Nicotinamide] as the compound, how does the tolerability (Male Han Wistar rats; regardless of route of administration (IV, PO), 20, 80 and 120 mg/kg, rat) read?
Answer: well tolerated

Question: What about the “time by which agent is completely cleared / plasma level returns to baseline” value (in vivo) of the same compound?
Answer: ≤ 24 h

Question: And the C0 (in vivo; 20 mg/kg)?
Answer: 28,700 ng/ml

Question: What about the Cl (in vivo; 20 mg/kg) of the same compound?
Answer: 586 mL/h/kg

Question: What about the Vz (in vivo; 20 mg/kg) of the same compound?
Answer: 691 mL/kg

Question: What about the “AUC(0–t)” value (in vivo; 60 mg/kg) of the same compound?
Answer: 196,000 h·ng/ml

Question: And the “AUC(0–∞)” value (in vivo; 60 mg/kg)?
Answer: 197,000 h·ng/ml

Question: What about the C0 (in vivo; 60 mg/kg) of the same compound?
Answer: 82,700 ng/ml

Question: What about the Cl (in vivo; 60 mg/kg) of the same compound?
Answer: 307 mL/h/kg

Question: What about the Cmax (in vivo; 60 mg/kg) of the same compound?
Answer: 79,400 ng/ml

Question: What about the Vz (in vivo; 60 mg/kg) of the same compound?
Answer: 963 mL/kg

Question: What about the t½ (in vivo; 60 mg/kg) of the same compound?
Answer: 2.23 h

Question: What about the C0 (in vivo; 120 mg/kg) of the same compound?
Answer: 172,000 ng/ml

Question: What about the Cl (in vivo; 120 mg/kg) of the same compound?
Answer: 262 mL/h/kg

Question: What about the Vz (in vivo; 120 mg/kg) of the same compound?
Answer: 877 mL/kg

Question: Which results are given for `NC(=O)c1cccnc1` [NA, Nicotinamide, reference compound]?
Answer: clinical signs associated with administration (Male Han Wistar rats; IV or PO, doses up to 120 mg/kg, fifteen male rats): No clinical signs; time by which agent is completely cleared / plasma level returns to baseline (in vivo; male, Han Wistar): ≤ 24 h; AUC(0-inf) (in vivo; male, Han Wistar, 120 mg/kg): 774 µg·h/mL; AUC(0-t) (in vivo; male, Han Wistar, 120 mg/kg): 573 µg·h/mL; C0 (in vivo; male, Han Wistar, 120 mg/kg): 178 µg/mL; Cmax (in vivo; male, Han Wistar, 120 mg/kg): 168 µg/mL; Vd (in vivo; male, Han Wistar, 120 mg/kg): 0.911 L/kg; clearance (in vivo; male, Han Wistar, 120 mg/kg): 2.72 mL/min/kg; half-life (in vivo; male, Han Wistar, 120 mg/kg, t½): 240 min; safe dose in rats, IP injection (rats; ip): 1000 mg/kg; safe dose in rats, subcutaneous injection (rats; sc): 750 mg/kg; adult dose at which NA is a safe therapy (humans): up to 10 g/day

From paper PMC6556870 (European Journal of Pharmaceutical Sciences, 2019)
